Data: the supplement of paper PMC10307832

How the values were obtained:
Assay in all cases: relative viability (nuclei count vs DMSO), 5 days (fraction); higher = more cells survive
[1] = test system: PC-14
How it was run: (§1)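 Values are medians from duplicate plates. Each reflects relative viability, defined as the nuclei count of treated wells over that of vehicle wells. Lung cancer cell lines in 1536-well plates were pin-tool dosed one day after seeding with one drug alone or with a fixed anchor-drug dose plus five library-drug doses (not always all listed) in √10 steps, then fixed, stained and imaged at 4× after 5 days.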

[2] = test system: NCI-H1993
How it was run: as §1

[3] = test system: NCI-H2170
How it was run: as §1

[4] = test system: SK-MES-1
How it was run: as §1

[5] = test system: CAL-12T
How it was run: as §1

[6] = test system: COR-L23
How it was run: as §1

[7] = test system: HOP-62
How it was run: as §1

[8] = test system: COR-L 105
How it was run: as §1

[9] = test system: LXF-289
How it was run: as §1

[10] = test system: NCI-H1395
How it was run: as §1

[11] = test system: NCI-H2087
How it was run: as §1

[12] = test system: NCI-H2023
How it was run: as §1

[13] = test system: RERF-LC-KJ
How it was run: as §1

[14] = test system: NCI-H1651
How it was run: as §1

[15] = test system: NCI-H3122
How it was run: as §1

[16] = test system: NCI-H1975
How it was run: as §1

[17] = test system: NCI-H596
How it was run: as §1

[18] = test system: NCI-H647
How it was run: as §1

[19] = test system: A-427
How it was run: as §1

[20] = test system: EPLC-272H
How it was run: as §1

[21] = test system: NCI-H2085
How it was run: as §1

Molecule `O=C(O)CCCCC(CCSCc1ccccc1)SCc1ccccc1` (stereo not given) [CPI-613] + CC1(C)CCC(c2ccc(Cl)cc2)=C(CN2CCN(c3ccc(C(=O)NS(=O)(=O)c4ccc(N[C@H](CCN5CCOCC5)CSc5ccccc5)c(S(=O)(=O)C(F)(F)F)c4)cc3)CC2)C1 [Navitoclax] (partner 0.5 µM) has a relative viability ([1]; first compound 5 µM) of 1, a relative viability ([1]; first compound 15.81 µM) of 1.05 and a relative viability ([1]; first compound 50 µM) of 1. The relative viability ([1]; first compound 158.11 µM) was 0.869, the relative viability ([1]; first compound 500 µM) was 1.16 and the relative viability ([2]; first compound 5 µM) was 0.917. The relative viability ([2]; first compound 15.81 µM) was 0.917, the relative viability ([2]; first compound 50 µM) was 1.06 and the relative viability ([2]; first compound 158.11 µM) was 0.64. It also gave a relative viability ([2]; first compound 500 µM) of 0.408, a relative viability ([3]; first compound 5 µM) of 0.6 and a relative viability ([3]; first compound 15.81 µM) of 0.573. The relative viability ([3]; first compound 50 µM) was 0.593, the relative viability ([3]; first compound 158.11 µM) was 0.396 and the relative viability ([3]; first compound 500 µM) was 0.0998. The relative viability ([4]; first compound 5 µM) was 1.08, the relative viability ([4]; first compound 15.81 µM) was 1.17 and the relative viability ([4]; first compound 50 µM) was 1.1. The relative viability ([4]; first compound 158.11 µM) was 1.03, the relative viability ([4]; first compound 500 µM) was 1 and the relative viability ([5]; first compound 5 µM) was 1.17. The relative viability ([5]; first compound 15.81 µM) was 0.967, the relative viability ([5]; first compound 50 µM) was 0.965 and the relative viability ([5]; first compound 158.11 µM) was 0.0606. It also gave a relative viability ([5]; first compound 500 µM) of 0.0373, a relative viability ([6]; first compound 5 µM) of 1.07 and a relative viability ([6]; first compound 15.81 µM) of 0.913. For the same molecule, the relative viability ([6]; first compound 50 µM) was 0.987, the relative viability ([6]; first compound 158.11 µM) was 0.327 and the relative viability ([6]; first compound 500 µM) was 0.0196. For the same molecule, the relative viability ([7]; first compound 5 µM) was 0.927, the relative viability ([7]; first compound 15.81 µM) was 0.992 and the relative viability ([7]; first compound 50 µM) was 0.978. The relative viability ([7]; first compound 158.11 µM) was 0.984, the relative viability ([7]; first compound 500 µM) was 0.911 and the relative viability ([8]; first compound 5 µM) was 0.847. It also gave a relative viability ([8]; first compound 15.81 µM) of 0.776, a relative viability ([8]; first compound 50 µM) of 0.719 and a relative viability ([8]; first compound 158.11 µM) of 0.297. It also gave a relative viability ([8]; first compound 500 µM) of 0.286, a relative viability ([9]; first compound 5 µM) of 0.898 and a relative viability ([9]; first compound 15.81 µM) of 0.894. The relative viability ([9]; first compound 50 µM) was 0.905, the relative viability ([9]; first compound 158.11 µM) was 0.157 and the relative viability ([9]; first compound 500 µM) was 0.0115. The relative viability ([10]; first compound 5 µM) was 1.48, the relative viability ([10]; first compound 15.81 µM) was 1.03 and the relative viability ([10]; first compound 50 µM) was 1.08. It also gave a relative viability ([10]; first compound 158.11 µM) of 1.16, a relative viability ([10]; first compound 500 µM) of 0.961 and a relative viability ([11]; first compound 5 µM) of 1.03. It also gave a relative viability ([11]; first compound 15.81 µM) of 0.953, a relative viability ([11]; first compound 50 µM) of 0.926 and a relative viability ([11]; first compound 158.11 µM) of 0.135. The relative viability ([11]; first compound 500 µM) was 0.0127, the relative viability ([12]; first compound 5 µM) was 1.01 and the relative viability ([12]; first compound 15.81 µM) was 0.997. For the same molecule, the relative viability ([12]; first compound 50 µM) was 0.951, the relative viability ([12]; first compound 158.11 µM) was 0.103 and the relative viability ([12]; first compound 500 µM) was 0.0259. It also gave a relative viability ([13]; first compound 5 µM) of 1.01, a relative viability ([13]; first compound 15.81 µM) of 0.747 and a relative viability ([13]; first compound 50 µM) of 1.27. The relative viability ([13]; first compound 158.11 µM) was 0.964, the relative viability ([13]; first compound 500 µM) was 0.756 and the relative viability ([14]; first compound 5 µM) was 1.04. For the same molecule, the relative viability ([14]; first compound 15.81 µM) was 0.866, the relative viability ([14]; first compound 50 µM) was 1 and the relative viability ([14]; first compound 158.11 µM) was 0.17. The relative viability ([14]; first compound 500 µM) was 0.152, the relative viability ([15]; first compound 5 µM) was 0.992 and the relative viability ([15]; first compound 15.81 µM) was 1.06. The relative viability ([15]; first compound 50 µM) was 0.988, the relative viability ([15]; first compound 158.11 µM) was 0.571 and the relative viability ([15]; first compound 500 µM) was 0.0262. It also gave a relative viability ([16]; first compound 5 µM) of 0.988, a relative viability ([16]; first compound 15.81 µM) of 1.1 and a relative viability ([16]; first compound 50 µM) of 1.08. For the same molecule, the relative viability ([16]; first compound 158.11 µM) was 0.816, the relative viability ([16]; first compound 500 µM) was 0.0403 and the relative viability ([17]; first compound 5 µM) was 1.01. The relative viability ([17]; first compound 15.81 µM) was 0.925, the relative viability ([17]; first compound 50 µM) was 1.11 and the relative viability ([17]; first compound 158.11 µM) was 0.362. It also gave a relative viability ([17]; first compound 500 µM) of 0.0344, a relative viability ([18]; first compound 5 µM) of 1.05 and a relative viability ([18]; first compound 15.81 µM) of 1.11. The relative viability ([18]; first compound 50 µM) was 0.963, the relative viability ([18]; first compound 158.11 µM) was 0.875 and the relative viability ([18]; first compound 500 µM) was 0.238. It also gave a relative viability ([19]; first compound 5 µM) of 0.974, a relative viability ([19]; first compound 15.81 µM) of 0.919 and a relative viability ([19]; first compound 50 µM) of 0.829. It also gave a relative viability ([19]; first compound 158.11 µM) of 0.342, a relative viability ([19]; first compound 500 µM) of 0.273 and a relative viability ([20]; first compound 5 µM) of 1.24. It also gave a relative viability ([20]; first compound 15.81 µM) of 0.897, a relative viability ([20]; first compound 50 µM) of 1.11 and a relative viability ([20]; first compound 158.11 µM) of 0.86. The relative viability ([20]; first compound 500 µM) was 0.765, the relative viability ([21]; first compound 5 µM) was 0.988 and the relative viability ([21]; first compound 15.81 µM) was 1.04. For the same molecule, the relative viability ([21]; first compound 50 µM) was 1.07, the relative viability ([21]; first compound 158.11 µM) was 0.543 and the relative viability ([21]; first compound 500 µM) was 0.196.
